Reference: PMC6792352, “Limited Chemical Structural Diversity Found to Modulate Thyroid Hormone Receptor in the Tox21 Chemical Library” (Environmental Health Perspectives, 2019)
Counter-ions that a name gives are not always drawn.

Experiment: in vitro
Conditions: rat, gh3-tre-luc cells

For CC(Cc1ccc(C(C)(C)C)cc1)CN1C[C@@H](C)O[C@@H](C)C1 (stereo partly drawn) [(2R,6S)-Fenpropimorph], the CC50 at 24 h (AC50 (uM) modified / 1000) was > 90 µM.
For O=c1oc2ccccc2c(O)c1Cc1c(O)c2ccccc2oc1=O [Dicumarol], the CC50 at 24 h (AC50 (uM) modified / 1000) was > 20 µM.
With OCc1cccnc1 [Nicotinyl alcohol] the CC50 at 24 h (AC50 (uM) modified / 1000) was > 50 µM.
In the case of C/C(=N\NC(=O)Nc1cc(F)cc(F)c1)c1ncccc1C(=O)O [Diflufenzopyr-sodium], the CC50 at 24 h (AC50 (uM) modified / 1000, Tox21_110001=Tox21_300997, viability, 1 nM T3 present, 24 h) is reported as > 90 µM.
In the case of O=C[C@H](O)[C@H]1OC(=O)[C@@H](O)[C@H]1O [D-Glucuronolactone], the CC50 at 24 h (AC50 (uM) modified / 1000) is reported as > 90 µM.
With CCOC(=O)c1ncn2c1CN(C)C(=O)c1c(I)cccc1-2 [Iomazenil] the CC50 at 24 h (AC50 (uM) modified / 1000) was > 50 µM.
With O=C1c2ccccc2C(=O)C1c1ccc2ccccc2n1 [D & C Yellow 11] the CC50 at 24 h (AC50 (uM) modified / 1000) was > 50 µM.
In the case of CCCCCCC(C)OC(=O)CCCCC(=O)OC(C)CCCCCC (centres unmarked) [Diisooctyl adipate], the CC50 at 24 h (AC50 (uM) modified / 1000) is reported as > 90 µM.
With CCBr [Bromoethane] the CC50 at 24 h (AC50 (uM) modified / 1000, Tox21_110001=Tox21_200355, viability, 1 nM T3 present, 24 h) was > 90 µM.
In the case of CC(Cl)C(Cl)Cl (centres unmarked) [1,1,2-Trichloropropane], the CC50 at 24 h (AC50 (uM) modified / 1000) is reported as > 90 µM.
In the case of COC(C)OC [1,1-Dimethoxyethane], the CC50 at 24 h (AC50 (uM) modified / 1000) is reported as > 90 µM.
In the case of CC(=O)Nc1ccc2c(c1)Cc1cc(NC(C)=O)ccc1-2 [2,7-Acetylaminofluorene], the CC50 at 24 h (AC50 (uM) modified / 1000) is reported as > 90 µM.
In the case of CC1=CC(C)C(C=O)C(C)C1 (centres unmarked) [Isocyclocitral], the CC50 at 24 h (AC50 (uM) modified / 1000) is reported as > 90 µM.
For CCc1cccc(CC)c1N [2,6-Diethylaniline], the CC50 at 24 h (AC50 (uM) modified / 1000) was > 90 µM.
For CC(C)OP(=O)(CP(=O)(OC(C)C)OC(C)C)OC(C)C [Tetraisopropyl methylenediphosphonate], the CC50 at 24 h (AC50 (uM) modified / 1000) was > 90 µM.
With CNC(=O)N(C)c1nnc(C(C)(C)C)s1 [Tebuthiuron] the CC50 at 24 h (AC50 (uM) modified / 1000, Tox21_110001=Tox21_201451, viability, 1 nM T3 present, 24 h) was > 90 µM.
O=C(CCN1CCN2CCCC2C1)N1c2ccccc2Sc2ccc(Cl)cc21 (centres unmarked) [Azaclorzine] gave a CC50 at 24 h (AC50 (uM) modified / 1000) of 14.6 µM.
In the case of CCCC(=O)C(=O)O [2-Oxopentanoic acid], the CC50 at 24 h (AC50 (uM) modified / 1000) is reported as > 90 µM.
In the case of O=C(O)c1ccc(NC(=O)[C@H](Cc2ccc(O)cc2)NC(=O)c2ccccc2)cc1 [Bentiromide sodium], the CC50 at 24 h (AC50 (uM) modified / 1000) is reported as > 50 µM.
With CC(C)(N)CO [2-Amino-2-methylpropan-1-ol] the CC50 at 24 h (AC50 (uM) modified / 1000) was > 90 µM.
In the case of CC(C)N(CCC(C(N)=O)(c1ccccc1)c1ccccn1)C(C)C (centres unmarked) [Disopyramide], the CC50 at 24 h (AC50 (uM) modified / 1000) is reported as > 50 µM.
With CCOc1ccc(Cc2nccc3cc(OCC)c(OCC)cc23)cc1OCC [Ethaverine hydrochloride] the CC50 at 24 h (AC50 (uM) modified / 1000) was > 20 µM.
With CC=C(C)C(=O)OCCC(C)CCC=C(C)C (centres unmarked) [3,7-Dimethyloct-6-en-1-yl 2-methylbut-2-enoate] the CC50 at 24 h (AC50 (uM) modified / 1000) was > 90 µM.
For COc1cc(Cl)c(OC)cc1N [2,5-Dimethoxy-4-chloroaniline], the CC50 at 24 h (AC50 (uM) modified / 1000) was > 90 µM.
With CCN(CC)CCNC(=O)c1c(C)[nH]c(/C=C2\C(=O)Nc3ccc(F)cc32)c1C [Sunitinib malate] the CC50 at 24 h (AC50 (uM) modified / 1000) was 20.1 µM.
In the case of CCOC1Oc2ccc(OS(C)(=O)=O)cc2C1(C)C (centres unmarked) [Ethofumesate], the CC50 at 24 h (AC50 (uM) modified / 1000) is reported as > 90 µM.
In the case of BrC(Br)Br [Bromoform], the CC50 at 24 h (AC50 (uM) modified / 1000, Tox21_110001=Tox21_200189, viability, 1 nM T3 present, 24 h) is reported as > 90 µM.
For CCCCCCCCSCCO [2-Hydroxyethyl octyl sulfide], the CC50 at 24 h (AC50 (uM) modified / 1000) was > 90 µM.
With C1COCCN1 [Morpholine] the CC50 at 24 h (AC50 (uM) modified / 1000) was > 100 µM.
For c1csc(C2(N3CCCCC3)CCCCC2)c1 [Tenocyclidine], the CC50 at 24 h (AC50 (uM) modified / 1000, Tox21_110001=Tox21_111833, viability, 1 nM T3 present, 24 h) was > 50 µM.
In the case of CC(C)[C@H](N)C(=O)OCC(CO)OCn1cnc2c(=O)nc(N)[nH]c21 (some centres unmarked) [Valganciclovir hydrochloride], the CC50 at 24 h (AC50 (uM) modified / 1000) is reported as > 50 µM.
In the case of Cc1ccc(C(=O)c2ccccc2)cc1 [4-Methylbenzophenone], the CC50 at 24 h (AC50 (uM) modified / 1000) is reported as > 90 µM.
In the case of O=C(O)C(Cl)Cl [Dichloroacetic acid], the CC50 at 24 h (AC50 (uM) modified / 1000) is reported as > 90 µM.
With Cc1ccccc1C(N)=O [2-Methylbenzamide] the CC50 at 24 h (AC50 (uM) modified / 1000) was > 90 µM.
In the case of CC(=O)Nc1ccc(S(N)(=O)=O)cc1 [4'-Sulfamylacetanilide], the CC50 at 24 h (AC50 (uM) modified / 1000) is reported as > 90 µM.
For Cc1ccccc1 [Toluene], the CC50 at 24 h (AC50 (uM) modified / 1000) was > 90 µM.
With O=c1oc(=O)c2cc3c(=O)oc(=O)c3cc12 [1H,3H-Benzo(1,2-c:4,5-c')difuran-1,3,5,7-tetrone] the CC50 at 24 h (AC50 (uM) modified / 1000) was > 90 µM.
In the case of CC[N+](C)(C)c1cccc(O)c1 [Edrophonium chloride], the CC50 at 24 h (AC50 (uM) modified / 1000) is reported as > 20 µM.
For CC(Cc1ccc(O)cc1)NCC(O)c1cc(O)cc(O)c1 (centres unmarked) [Fenoterol hydrobromide], the CC50 at 24 h (AC50 (uM) modified / 1000) was > 50 µM.
For CCN(O)CC [N,N-Diethylhydroxylamine], the CC50 at 24 h (AC50 (uM) modified / 1000) was > 90 µM.
Work on COc1ccc2sc(C(=O)Nc3nnn[nH]3)c(OC(C)C)c2c1 [CI-959] yielded a CC50 at 24 h (AC50 (uM) modified / 1000) of 6.07 µM.
In the case of CC(=O)c1cnccn1 [Acetylpyrazine], the CC50 at 24 h (AC50 (uM) modified / 1000) is reported as > 100 µM.
C/C=C(/C(=C/C)c1ccc(O)cc1)c1ccc(O)cc1 [Dienestrol] gave a CC50 at 24 h (AC50 (uM) modified / 1000) of 16.1 µM.
In the case of COC(=O)/C=C/c1ccccc1 [Methyl (E)-cinnamate], the CC50 at 24 h (AC50 (uM) modified / 1000) is reported as > 90 µM.
With C[C@@H]1C(=O)NC2=Nc3cccc(Cl)c3CN21 [Quazinone] the CC50 at 24 h (AC50 (uM) modified / 1000) was > 50 µM.
With N#CCN(CC#N)CCN(CC#N)CC#N [(Ethylenedinitrilo)tetraacetonitrile] the CC50 at 24 h (AC50 (uM) modified / 1000) was > 90 µM.
For O=C(O)c1nc(Cl)c(Cl)c(Cl)c1Cl [3,4,5,6-Tetrachloropyridine-2-carboxylic acid], the CC50 at 24 h (AC50 (uM) modified / 1000) was > 90 µM.
In the case of CN(C)NC(=O)CCC(=O)O [Daminozide], the CC50 at 24 h (AC50 (uM) modified / 1000, Tox21_110001=Tox21_202199, viability, 1 nM T3 present, 24 h) is reported as > 90 µM.
With Cc1cccc([N+](=O)[O-])c1C(=O)O [2-Methyl-6-nitrobenzoic acid] the CC50 at 24 h (AC50 (uM) modified / 1000) was > 90 µM.
In the case of CC(C)NC(C)Cc1ccc(I)cc1 (centres unmarked) [Iofetamine hydrochloride], the CC50 at 24 h (AC50 (uM) modified / 1000, Tox21_110001=Tox21_111239, viability, 1 nM T3 present, 24 h) is reported as > 50 µM.
With CCc1occc(=O)c1O [2-Ethyl-3-hydroxy-4H-pyran-4-one] the CC50 at 24 h (AC50 (uM) modified / 1000) was > 90 µM.
For Cc1nc2ccccn2c(=O)c1CCN1CCC(C(=O)c2ccc(F)cc2)CC1 [Pirenperone], the CC50 at 24 h (AC50 (uM) modified / 1000) was > 50 µM.
With CC(=O)[C@H]1CC[C@H]2[C@@H]3C=CC4=CC(=O)CC[C@@]4(C)[C@@H]3CC[C@]12C [Dydrogesterone] the CC50 at 24 h (AC50 (uM) modified / 1000) was > 20 µM.
In the case of CCCNC(=O)NS(=O)(=O)c1ccc(Cl)cc1 [Chlorpropamide], the CC50 at 24 h (AC50 (uM) modified / 1000) is reported as > 90 µM.
In the case of CN1CCN(CCC(=O)N2c3ccccc3Sc3ccc(C(F)(F)F)cc32)CC1 [Ftormetazine], the CC50 at 24 h (AC50 (uM) modified / 1000) is reported as 25.8 µM.
Molecule COc1ccccc1OCCNCC(O)COc1cccc2[nH]c3ccccc3c12 (centres unmarked) [Carvedilol tartrate] has a CC50 at 24 h (AC50 (uM) modified / 1000) of 24 µM.
With CC(C)(C)C(=O)OCOP(=O)(COCCn1cnc2c(N)ncnc21)OCOC(=O)C(C)(C)C [Adefovir dipivoxil] the CC50 at 24 h (AC50 (uM) modified / 1000) was > 50 µM.
For Cc1c(Cn2ccnc2)c2ccccc2n1CCC(=O)O [Dazmegrel], the CC50 at 24 h (AC50 (uM) modified / 1000) was > 50 µM.
With CCCCCCCCCCCCCCCCCC[N+](C)(C)Cc1ccccc1 [N,N-Dimethyl-N-benzyl-N-octadecylammonium chloride] the CC50 at 24 h (AC50 (uM) modified / 1000) was 11.4 µM.
For O=C(O)C(F)(F)C(F)(F)C(F)(F)C(F)(F)C(F)(F)F [Perfluorohexanoic acid], the CC50 at 24 h (AC50 (uM) modified / 1000, Tox21_110001=Tox21_300394, viability, 1 nM T3 present, 24 h) was > 90 µM.
With CCCCOCCOCCOC(C)=O [2-(2-Butoxyethoxy)ethyl acetate] the CC50 at 24 h (AC50 (uM) modified / 1000) was > 90 µM.
In the case of CC(C)(C)[C@]1(O)CCN2C[C@H]3c4ccccc4CCc4cccc(c43)[C@@H]2C1 [Butaclamol hydrochloride], the CC50 at 24 h (AC50 (uM) modified / 1000) is reported as 22.9 µM.
With Cc1oc2c(NC(=O)c3c(Cl)cccc3Cl)cccc2c1C(C)(C)O [FR167356] the CC50 at 24 h (AC50 (uM) modified / 1000) was 19.6 µM.
In the case of Nc1c2c(nc3ccccc13)CCCC2O (centres unmarked) [Hydroxytacrine maleate], the CC50 at 24 h (AC50 (uM) modified / 1000) is reported as > 50 µM.
Work on CCN(CC)CCN1C(=O)CN=C(c2ccccc2F)c2cc(Cl)ccc21 [Flurazepam] yielded a CC50 at 24 h (AC50 (uM) modified / 1000) of 23.1 µM.
In the case of CCCC(=O)OC [Methyl butyrate], the CC50 at 24 h (AC50 (uM) modified / 1000) is reported as > 90 µM.
With O=[N+]([O-])C(CO)(CO)CO [2-(Hydroxymethyl)-2-nitro-1,3-propanediol] the CC50 at 24 h (AC50 (uM) modified / 1000) was > 90 µM.
For O=C1NC(=O)c2cccc3cccc1c23 [1H-Benzo[de]isoquinoline-1,3(2H)-dione], the CC50 at 24 h (AC50 (uM) modified / 1000) was > 90 µM.
